Results taken from ChEMBL document CHEMBL5550184, “Structure-activity relationships of middle-size cyclic peptides, KRAS inhibitors derived from an mRNA display” (Bioorg Med Chem, 2024).
Starred links: 1 amine or outer side, 2 acyl side, 3 side chain; linkers in the order of their positions; H or OH if unused. Positions of bridges follow the written chain, without caps; N, C: chain ends. Non-standard residues stand in square brackets, D forms with d. Residues, ends and D or L forms follow the SMILES beside them. *: point of attachment. hPhe(3-Cl-4-CF3) = N[C@@H](CCc1ccc(C(F)(F)F)c(Cl)c1)C(=O)O; X2 = CN([C@@H](CC(=O)[*:2])C(=O)n1cccc1)[*:1]; NMePhe(4-Cl) = CN[C@@H](Cc1ccc(Cl)cc1)C(=O)O; X1 = O=C([C@H](CC(=O)[*:2])N[*:1])n1cccc1; NMeAla(cPent) = CN[C@@H](CC1CCCC1)C(=O)O; Phe(3-Cl) = N[C@@H](Cc1cccc(Cl)c1)C(=O)O; NMeAla(cPr) = CN[C@@H](CC1CC1)C(=O)O; NMeGly(cBu) = CN[C@H](C(=O)O)C1CCC1; NMeCha = CN[C@@H](CC1CCCCC1)C(=O)O; NMeGly(cPr) = CN[C@H](C(=O)O)C1CC1; NMeCba = CN[C@@H](CC1CCC1)C(=O)O; NMeF = CN[C@@H](Cc1ccccc1)C(=O)O; NMeI = CC[C@H](C)[C@H](NC)C(=O)O; NMeD = CN[C@@H](CC(=O)O)C(=O)O; NMeL = CN[C@@H](CC(C)C)C(=O)O; NMeNle = CCCC[C@H](NC)C(=O)O; NMeNva = CCC[C@H](NC)C(=O)O; NMeV = CN[C@H](C(=O)O)C(C)C; NMeA = CN[C@@H](C)C(=O)O; Piperidide = C1CCN(*)CC1; Pyrrolidide = C1CCN(*)C1; Ac5c = NC1(C(=O)O)CCCC1; Aze = O=C(O)[C@@H]1CCN1; Sar = CNCC(=O)O

Key:
[1] = Inhibition of biotin-tagged KRAS G12D mutant (unknown origin) to recombinant His-tagged SOS1 (unknown origin) protein-protein interaction incubated for 120 mins by AlphaLISA method; parameters: species or system Homo sapiens
[2] = Apparent permeability in human Caco-2 cells incubated for 180 mins by LC-MS/MS method; format: ADME, cell-based
[3] = tested on: ASPC1; assay: Cytotoxicity against human AsPC1 cells assessed as reduction in cell viability incubated for 7 days by CellTiterGlo Luminescent Cell Viability Assay; format: functional, cell-based; conditions: ASPC1, 168 h

| SMILES | IC50 [1] [nM] | Papp at 3 h [2] [×10⁻⁶ cm/s] | IC50 [3] [nM] |
| --- | --- | --- | --- |
| CC[C@H](C)[C@@H]1NC(=O)[C@H](C)N(C)C(=O)C[C@@H](C(=O)n2cccc2)N(C)C(=O)[C@H](C(C)C)N(C)C(=O)[C@H](Cc2ccccc2)N(C)C(=O)[C@H](Cc2ccccc2)NC(=O)[C@H](Cc2cccc(Cl)c2)NC(=O)CN(C)C(=O)[C@H](Cc2ccc(Cl)cc2)N(C)C(=O)CN(C)C(=O)CN(C)C1=O (cyclo(F[NMeF][NMeV][X2][NMeA]I[Sar][Sar][NMePhe(4-Cl)][Sar][Phe(3-Cl)])) | 70 | 0.11 |  |
| CCCC[C@H]1C(=O)N(C)[C@H](C(=O)n2cccc2)CC(=O)N(C)[C@@H](C)C(=O)N[C@@H]([C@@H](C)CC)C(=O)N(C)CC(=O)N(C)CC(=O)N(C)[C@@H](Cc2ccc(Cl)cc2)C(=O)N(C)CC(=O)N[C@@H](Cc2cccc(Cl)c2)C(=O)N[C@@H](Cc2ccccc2)C(=O)N(C)[C@@H](Cc2ccccc2)C(=O)N1C (cyclo(F[NMeF][NMeNle][X2][NMeA]I[Sar][Sar][NMePhe(4-Cl)][Sar][Phe(3-Cl)])) | 270 | 0.09 |  |
| CC[C@H](C)[C@@H]1NC(=O)[C@H](CC2CCC2)N(C)C(=O)C[C@@H](C(=O)N2CCCCC2)N(C)C(=O)[C@H](C(C)C)N(C)C(=O)C2(CCCC2)NC(=O)[C@@H]2CCCN2C(=O)[C@H](CCc2ccc(C(F)(F)F)c(Cl)c2)NC(=O)CN(C)C(=O)[C@H](CC2CCCCC2)N(C)C(=O)CN(C)C(=O)CN(C)C1=O ([NMeCba]I[Sar][Sar][NMeCha][Sar][hPhe(3-Cl-4-CF3)]P[Ac5c][NMeV][NMeD]-Piperidide; lactam N-11) | 10 | 0.41 | 790 |
| CC[C@H](C)[C@@H]1NC(=O)[C@H](CC(C)C)N(C)C(=O)C[C@@H](C(=O)N2CCCCC2)N(C)C(=O)[C@H](CC2CCCCC2)N(C)C(=O)C2(CCCC2)NC(=O)[C@@H]2CCCN2C(=O)[C@H](CCc2ccc(C(F)(F)F)c(Cl)c2)NC(=O)CN(C)C(=O)[C@H](CC2CCCCC2)N(C)C(=O)[C@@H]2CCN2C(=O)[C@H](C)N(C)C1=O ([NMeL]I[NMeA][Aze][NMeCha][Sar][hPhe(3-Cl-4-CF3)]P[Ac5c][NMeCha][NMeD]-Piperidide; lactam N-11) | 45 |  | 30000 |
| CC[C@H](C)[C@@H]1NC(=O)[C@H](CC(C)C)N(C)C(=O)C[C@@H](C(=O)N2CCCCC2)N(C)C(=O)[C@H](C(C)C)N(C)C(=O)C2(CCCC2)NC(=O)[C@@H]2CCCN2C(=O)[C@H](CCc2ccc(C(F)(F)F)c(Cl)c2)NC(=O)CN(C)C(=O)[C@H](CC2CCCCC2)N(C)C(=O)[C@@H]2CCN2C(=O)[C@H](C)N(C)C1=O ([NMeL]I[NMeA][Aze][NMeCha][Sar][hPhe(3-Cl-4-CF3)]P[Ac5c][NMeV][NMeD]-Piperidide; lactam N-11) | 4.1 | 1.3 | 110 |
| CC[C@H](C)[C@@H]1NC(=O)[C@H](CC2CC2)N(C)C(=O)C[C@@H](C(=O)N2CCCCC2)N(C)C(=O)[C@H](C(C)C)N(C)C(=O)C2(CCCC2)NC(=O)[C@@H]2CCCN2C(=O)[C@H](CCc2ccc(C(F)(F)F)c(Cl)c2)NC(=O)CN(C)C(=O)[C@H](CC2CCCCC2)N(C)C(=O)CN(C)C(=O)CN(C)C1=O ([NMeAla(cPr)]I[Sar][Sar][NMeCha][Sar][hPhe(3-Cl-4-CF3)]P[Ac5c][NMeV][NMeD]-Piperidide; lactam N-11) | 10 | 0.34 | 650 |
| CC[C@H](C)[C@@H]1NC(=O)[C@H](C2CCC2)N(C)C(=O)C[C@@H](C(=O)N2CCCCC2)N(C)C(=O)[C@H](C(C)C)N(C)C(=O)C2(CCCC2)NC(=O)[C@@H]2CCCN2C(=O)[C@H](CCc2ccc(C(F)(F)F)c(Cl)c2)NC(=O)CN(C)C(=O)[C@H](CC2CCCCC2)N(C)C(=O)CN(C)C(=O)CN(C)C1=O ([NMeGly(cBu)]I[Sar][Sar][NMeCha][Sar][hPhe(3-Cl-4-CF3)]P[Ac5c][NMeV][NMeD]-Piperidide; lactam N-11) | 2.8 | 0.91 | 130 |
| CC[C@H](C)[C@@H]1NC(=O)[C@H](C)N(C)C(=O)C[C@@H](C(=O)N2CCCC2)NC(=O)[C@H](C(C)C)N(C)C(=O)[C@H](Cc2ccccc2)N(C)C(=O)[C@H](Cc2c[nH]c3ccccc23)NC(=O)[C@H](Cc2cccc(Cl)c2)NC(=O)CN(C)C(=O)[C@H](Cc2ccc(Cl)cc2)N(C)C(=O)CN(C)C(=O)CN(C)C1=O ([NMeA]I[Sar][Sar][NMePhe(4-Cl)][Sar][Phe(3-Cl)]W[NMeF][NMeV]D-Pyrrolidide; lactam N-11) | 54 |  |  |
| CC[C@H](C)[C@@H]1NC(=O)[C@H](CC2CCCC2)N(C)C(=O)C[C@@H](C(=O)N2CCCCC2)N(C)C(=O)[C@H](C(C)C)N(C)C(=O)C2(CCCC2)NC(=O)[C@@H]2CCCN2C(=O)[C@H](CCc2ccc(C(F)(F)F)c(Cl)c2)NC(=O)CN(C)C(=O)[C@H](CC2CCCCC2)N(C)C(=O)CN(C)C(=O)CN(C)C1=O ([NMeAla(cPent)]I[Sar][Sar][NMeCha][Sar][hPhe(3-Cl-4-CF3)]P[Ac5c][NMeV][NMeD]-Piperidide; lactam N-11) | 13 | 0.41 | 730 |
| CC[C@H](C)[C@@H]1NC(=O)[C@H](C)N(C)C(=O)C[C@@H](C(=O)n2cccc2)N(C)C(=O)[C@H](CC(C)C)N(C)C(=O)[C@H](Cc2ccccc2)N(C)C(=O)[C@H](Cc2ccccc2)NC(=O)[C@H](Cc2cccc(Cl)c2)NC(=O)CN(C)C(=O)[C@H](Cc2ccc(Cl)cc2)N(C)C(=O)CN(C)C(=O)CN(C)C1=O (cyclo(F[NMeF][NMeL][X2][NMeA]I[Sar][Sar][NMePhe(4-Cl)][Sar][Phe(3-Cl)])) | 36 | 0.87 | > 20000 |
| CC[C@H](C)[C@@H]1NC(=O)[C@H](CC2CCCCC2)N(C)C(=O)C[C@@H](C(=O)N2CCCCC2)N(C)C(=O)[C@H](C(C)C)N(C)C(=O)C2(CCCC2)NC(=O)[C@@H]2CCCN2C(=O)[C@H](CCc2ccc(C(F)(F)F)c(Cl)c2)NC(=O)CN(C)C(=O)[C@H](CC2CCCCC2)N(C)C(=O)CN(C)C(=O)CN(C)C1=O ([NMeCha]I[Sar][Sar][NMeCha][Sar][hPhe(3-Cl-4-CF3)]P[Ac5c][NMeV][NMeD]-Piperidide; lactam N-11) | 25 | 0.33 | 950 |
| CC[C@H](C)[C@@H]1NC(=O)[C@H](CC(C)C)N(C)C(=O)C[C@@H](C(=O)N2CCCCC2)N(C)C(=O)[C@H](C2CC2)N(C)C(=O)C2(CCCC2)NC(=O)[C@@H]2CCCN2C(=O)[C@H](CCc2ccc(C(F)(F)F)c(Cl)c2)NC(=O)CN(C)C(=O)[C@H](CC2CCCCC2)N(C)C(=O)[C@@H]2CCN2C(=O)[C@H](C)N(C)C1=O ([NMeL]I[NMeA][Aze][NMeCha][Sar][hPhe(3-Cl-4-CF3)]P[Ac5c][NMeGly(cPr)][NMeD]-Piperidide; lactam N-11) | 50 | 1.36 | 1100 |
| CCC[C@H]1C(=O)N(C)[C@H](C(=O)N2CCCCC2)CC(=O)N(C)[C@@H](CC(C)C)C(=O)N[C@@H]([C@@H](C)CC)C(=O)N(C)[C@@H](C)C(=O)N2CC[C@H]2C(=O)N(C)[C@@H](CC2CCCCC2)C(=O)N(C)CC(=O)N[C@@H](CCc2ccc(C(F)(F)F)c(Cl)c2)C(=O)N2CCC[C@H]2C(=O)NC2(CCCC2)C(=O)N1C ([NMeL]I[NMeA][Aze][NMeCha][Sar][hPhe(3-Cl-4-CF3)]P[Ac5c][NMeNva][NMeD]-Piperidide; lactam N-11) | 5.7 |  | 310 |
| CC[C@H](C)[C@@H]1NC(=O)[C@H](C)N(C)C(=O)C[C@@H](C(=O)n2cccc2)NC(=O)[C@H](C)N(C)C(=O)[C@H](Cc2ccccc2)N(C)C(=O)[C@H](Cc2ccccc2)NC(=O)[C@H](Cc2cccc(Cl)c2)NC(=O)CN(C)C(=O)[C@H](Cc2ccc(Cl)cc2)N(C)C(=O)CN(C)C(=O)CN(C)C1=O (cyclo(F[NMeF][NMeA][X1][NMeA]I[Sar][Sar][NMePhe(4-Cl)][Sar][Phe(3-Cl)])) | > 5000 | 0.1 |  |
| CCC[C@H]1C(=O)N(C)[C@H](C(=O)n2cccc2)CC(=O)N(C)[C@@H](C)C(=O)N[C@@H]([C@@H](C)CC)C(=O)N(C)CC(=O)N(C)CC(=O)N(C)[C@@H](Cc2ccc(Cl)cc2)C(=O)N(C)CC(=O)N[C@@H](Cc2cccc(Cl)c2)C(=O)N[C@@H](Cc2ccccc2)C(=O)N(C)[C@@H](Cc2ccccc2)C(=O)N1C (cyclo(F[NMeF][NMeNva][X2][NMeA]I[Sar][Sar][NMePhe(4-Cl)][Sar][Phe(3-Cl)])) | 97 | 0.14 |  |
| CC[C@H](C)[C@@H]1NC(=O)[C@H](C)N(C)C(=O)C[C@@H](C(=O)n2cccc2)N(C)C(=O)[C@H]([C@@H](C)CC)N(C)C(=O)[C@H](Cc2ccccc2)N(C)C(=O)[C@H](Cc2ccccc2)NC(=O)[C@H](Cc2cccc(Cl)c2)NC(=O)CN(C)C(=O)[C@H](Cc2ccc(Cl)cc2)N(C)C(=O)CN(C)C(=O)CN(C)C1=O (cyclo(F[NMeF][NMeI][X2][NMeA]I[Sar][Sar][NMePhe(4-Cl)][Sar][Phe(3-Cl)])) | 87 | 0.09 |  |
| CC[C@H](C)[C@@H]1NC(=O)[C@H](CC(C)C)N(C)C(=O)C[C@@H](C(=O)N2CCCCC2)N(C)C(=O)[C@H](CC(C)C)N(C)C(=O)C2(CCCC2)NC(=O)[C@@H]2CCCN2C(=O)[C@H](CCc2ccc(C(F)(F)F)c(Cl)c2)NC(=O)CN(C)C(=O)[C@H](CC2CCCCC2)N(C)C(=O)[C@@H]2CCN2C(=O)[C@H](C)N(C)C1=O ([NMeL]I[NMeA][Aze][NMeCha][Sar][hPhe(3-Cl-4-CF3)]P[Ac5c][NMeL][NMeD]-Piperidide; lactam N-11) | 3.9 |  | 240 |
| CC[C@H](C)[C@@H]1NC(=O)[C@H](C)N(C)C(=O)C[C@@H](C(=O)n2cccc2)NC(=O)[C@H](CC2CCCCC2)N(C)C(=O)[C@H](Cc2ccccc2)N(C)C(=O)[C@H](Cc2ccccc2)NC(=O)[C@H](Cc2cccc(Cl)c2)NC(=O)CN(C)C(=O)[C@H](Cc2ccc(Cl)cc2)N(C)C(=O)CN(C)C(=O)CN(C)C1=O (cyclo(F[NMeF][NMeCha][X1][NMeA]I[Sar][Sar][NMePhe(4-Cl)][Sar][Phe(3-Cl)])) | 670 | 0.07 |  |
